The subject of assay [1] is Ba/F3 cells having BCR-ABL^T315I.
Assay [2] relates to human CML xenograft model. The assay can be described thus: Subcutaneous tumors, human CML xenograft model. The class given is in vivo. Background: In xenograft studies the graft and the host belong to different species.
In assay [3] the target is Ba/F3 containing BCR-ABL mutation T315I (Homo sapiens, UniProt P00519, T315I, cells depend on it). The settings on record: read-out: Antiproliferation Effect (IC50). The text has this: (§1) Ba/F3 cells stably expressing BCR-ABL (F359V, H396R, E255K, Y253H, T315I, F317L) mutations were provided by the Institute of Life and Health, Guangzhou Academy of Sciences.
(§2) 1. The mutated Ba/F3 cell line stably expressing BCR-ABL (E255V, T315M, Y253H/E255V, Y253H/T315I, Y253H/F359V, T315I/F317L, F317L/F359V) mutation was constructed by electro-transformation method, the Ba/F3 cell line stably expressing the BCR-ABL (E255V/T315I, T315I/F359V) mutation was constructed by lentivirus infection method.
(§3) 2. Effect of drugs on the proliferation of BaF3 cells stably transfected with BCR-ABL single mutation or complex mutation by WST assay
(§4) The dilution was used as a cell blank control (excluding the sample to be tested, which was added to the cells). In addition, a negative control (excluding the sample to be tested and cells) was prepared. In addition to the negative control wells, 100 μl of complete medium cell suspension was added to each well. The dilution was added to the negative control wells at 100 μl/well. 3 repeated wells were set in the experiment. […] 20 μl of CCK-8 detection solution (Shanghai Life iLab Biotech Co., LTD, Cat #D3100L4057) was added to each well, incubating at 37° C. for 2 hours in a CO2 incubator. The OD value was measured at A450 nm by a microplate reader.
(§5) The percentage of cell viability was calculated using the following formula: (O.D. test well-O.D. negative control well)/(O.D. cell control well-O.D. negative control well)×100
(§6) The IC50 was calculated using a non-linear regression data analysis method of Graphpad Prism 6.0 software ([…]).

The target in assay [4] is Ba/F3 containing BCR-ABL mutation Y253H/T315I (Homo sapiens, UniProt P00519, Y253H/T315I, cells depend on it). The settings on record: read-out: Antiproliferation Effect (IC50).
Source text: as §1, §2, §3, §4, §5, §6

For assay [5], the target named is Ba/F3 containing BCR-ABL mutation E255K (Homo sapiens, UniProt P00519, E255K, cells depend on it). The settings on record: read-out: Antiproliferation Effect (IC50).
Source text: as §1, §2, §3, §4, §5, §6

In assay [6] the target is Ba/F3 containing BCR-ABL mutation F317L (Homo sapiens, UniProt P00519, F317L, cells depend on it). The settings on record: read-out: Antiproliferation Effect (IC50).
Source text: as §1, §2, §3, §4, §5, §6

Assay [7] has as its target Ba/F3 containing BCR-ABL mutation T315I/F317L (Homo sapiens, UniProt P00519, T315I/F317L, cells depend on it). The settings on record: read-out: Antiproliferation Effect (IC50).
Source text: as §1, §2, §3, §4, §5, §6

Assay [8] addresses Ba/F3 containing BCR-ABL mutation Y253H/E255V (Homo sapiens, UniProt P00519, Y253H/E255V, cells depend on it). The settings on record: read-out: Antiproliferation Effect (IC50).
Source text: as §1, §2, §3, §4, §5, §6

In assay [9] the target is Ba/F3 containing BCR-ABL mutation Y253H (Homo sapiens, UniProt P00519, Y253H, cells depend on it). The settings on record: read-out: Antiproliferation Effect (IC50).
Source text: as §1, §2, §3, §4, §5, §6

The test system of assay [10] is CRKL phosphorylation in PBMCs, a biomarker of BCR-ABL inhibition. The assay can be described thus: Phase 1 trial, CRKL phosphorylation in PBMCs (Example 2). The format is in vivo, human. The settings on record: 53 evaluable patients. The text has this: The eligible patients received treatments until disease progression or intolerable toxicities. The primary efficacy endpoint in the CML AP and CP patients, was complete hematological response (CHR) and major cytogenetic response (MCyR) respectively, MCyR includes partial cytogenetic response (PCyR) and complete cytogenetic response (CCyR). Blood samples were collected at various time points on Day 1-2 and Day 27-28 during cycle 1 for PK analyses.

The structures appear in SMILES notation.

`Cc1ccc(C(=O)Nc2ccc(CN3CCN(C)CC3)c(C(F)(F)F)c2)cc1C#Cc1cnc2[nH]ncc2c1` [compound of formula (I-A), 3-(2-(1H-pyrazolo[3,4-b]pyridin-5-yl)ethynyl)-4-methyl-N-(4-((4-methylpiperazin-1-yl)methyl)-3-(trifluoromethyl)phenyl)-benzamide]: in [1] (Ba/F3 BCR-ABL T315I), the “survival rate of isogenic leukemia mice” value was “significantly improved the survival rate”. Also, the “survival of tumor bearing mice (FIG. 8)” value in assay [1] (oral q2d or q3d, dose-dependent manner, imatinib qd as control) is “significantly prolonged the survival”. Also, the “effect on subcutaneous tumors” value in assay [2] is on record as “complete regression”. Also, the GI50 in assay [3] is 24 ± 10 nM; in assay [4], 111 ± 1 nM; in assay [5] it was 22 ± 13 nM; in assay [6], 8 ± 3 nM; in [7] it was 114 ± 9 nM; in assay [8], 122 nM. Besides, the GI50 in [9] is 7 ± 1 nM. The “reduction of CRKL phosphorylation in PBMCs” value in [10] is “dose and time dependent”.

The values above are taken from patent US12544370B2, “Methods for cancer therapy” (ASCENTAGE PHARMA (SUZHOU) CO., LTD., priority 2018, dated 2026).
